“Also recorded” adds a separate entry of the source.
Legend:
[1] = system: THP1 monocytes; assay: PR3-stimulated giant cell formation in THP1 monocytes matured to macrophages; type: cell-based; settings: PMA 24 hours, PR3 10 mcg/ml 72 hours, with or without Stattic; FIG. 19
Procedure: An in vitro model of granulomatous disease was created using THP1 monocytes. The THP1 monocytes were matured to macrophages by the addition of PMA for 24 hours and then stimulated with PR3 at 10 mcg/ml for 72 hours in the presence or absence of Stattic, a STAT3 inhibitor. MGC formation was assessed as before by calculating the fusion index.

[2] = system: macrophage aggregation; assay: PR3-induced macrophage aggregation / MGC formation in zebrafish embryos, niclosamide added to fish water; type: in vivo; settings: for Median aggregate volume: PR3-injected zebrafish, PR3 alone 106969 (41031-465184)
Procedure: The injection of intact or HI PR3 into the zebrafish was repeated in the presence or absence of the IL-6/STAT3 inhibitor niclosamide, which was added to the fish water at different concentrations (0.01-0.3 μmol/l) (FIG. 11B, C). […] Median aggregate volume PR3 vs PR3 and niclosamide 0.3, 0.15. 0.05. 0.01 μmol/ml respectively 106969 (41031-465184), 42730 (25638-324957), 44501 (26861-90354), 63043 (27395-205060), 117473 (35128-245781) (p<0.05 PR3 vs 0.3 and 0.05, p<0.001 PR3 vs 0.15 μmol/l; one way ANOVA).
In Vivo Effect of PR3 on MGC Formation and the Ability of Niclosamide to Reduce MGC Formation In order to understand granuloma formation in vivo, a zebrafish embryo model was developed. Transgenic macrophage reporter zebrafish {Tg (MPEg: cherry)} embryos at 24 hpf, were injected into the yolk sac with human PR3 or Albumin at 1 or 5 […], either untreated or following heat inactivation. Embryos were imaged at 120 hpf with lightsheet microscopy showing volumes of fused macrophages according to the colour scale (see FIG. 8A-D). […] Median (IQR) aggregate volumes were HI albumin 5 pg/ml 22713 μm^3 (19918-31486) and HI PR3 5 pg/ml 31571 μm^3 (23137-49647) (p<0.001, one way ANOVA). In subsequent experiments, the injection of intact or HI PR3 was repeated in the presence or absence of the IL-6-STAT3 inhibitor niclosamide, added to the fish water at different concentrations (0.01-0.3 μmol/l) (see FIG. 8F-G). […] Median aggregate volume PR3 vs PR3 and niclosamide 0.3, 0.15. 0.05. 0.01 μmol/ml respectively 106969 (41031-465184), 42730 (25638-324957), 44501 (26861-90354), 63043 (27395-205060), 117473 (35128-245781) (p<0.05 PR3 vs 0.3 and 0.05, p<0.001 PR3 vs 0.15 μmol/l; one way ANOVA).
In Vivo Danio rerio Model All animal experimental protocols were approved by University College London's Animal Welfare and Ethical Review Body (AWERB) and licensed by the UK Home Office. All experiments were performed in accordance with relevant guidelines and regulations as described in UK Home Office Project License (PPL 70/8365) awarded to Dr Paul Frankel. The Transgeneic Tg (mpeg: GFP) line was kindly provided by Professor Maggie Dallman (Imperial College London, UK). Zebrafish were maintained in mixed-sex populations at 28° C. with a 14 h: 10 h light: dark cycle from 9 am-[…] and within internationally agreed environmental parameters regarding water quality and composition. Following dechorionation and anaesthesia with tricaine (0.2 mg/ml), embryos were microinjected into the yolk sac with 5 pg/mL of PR3, heat inactivated PR3, or albumin and incubated in 10 cm Petri dishes at 28.5° C. After 5 days, living embryos were anaesthetised with tricaine (0.2 mg/ml) and embedded in 2% agarose for 3-dimensional confocal microscopy using a Ziess camera at ×200 magnification to determine macrophage fusion. Z-stacks were analysed using Imaris software version 9.2. Images were 3D rendered and aggregate volumes measured by automated thresholds.

[3] = system: IL-6; assay: IL-6 levels in zebrafish model of granulomatous disease; type: in vivo; settings: PR3 zebrafish model, niclosamide via fish tank water
Excerpt: An in vivo model of granulomatous disease in zebrafish was developed by administering PR3 to the fish.

[4] = system: GPA patients' monocytes; assay: PR3-stimulated MGC formation (fusion index) in GPA patients' monocytes; type: cell-based, human; settings: cultured monocytes; Tocilizumab 10 μg/mL

## O=[N+]([O-])c1ccc2c(c1)S(=O)(=O)C=C2 [Stattic]
[1]
  giant cell formation index: significant decrease; also recorded: lower giant cell formation index

## O=C(Nc1ccc([N+](=O)[O-])cc1Cl)c1cc(Cl)ccc1O [niclosamide, Niclosamide]
[2]; FIG. 8F, G, 0.3, 0.15 and 0.05 μmol/ml niclosamide compared to PR3 alone
  aggregate volume and number: reduction in aggregate volume and number
[2]; niclosamide 0.01 μmol/l in fish water
  Median aggregate volume: 117473 (35128-245781) μm^3
[2]; niclosamide 0.05 μmol/l in fish water, p<0.05
  Median aggregate volume: 63043 (27395-205060) μm^3
[2]; niclosamide 0.15 μmol/l in fish water, p<0.001
  Median aggregate volume: 44501 (26861-90354) μm^3
[2]; niclosamide 0.3 μmol/l in fish water, p<0.05
  Median aggregate volume: 42730 (25638-324957) μm^3
[2]; PR3 zebrafish model, niclosamide via fish tank water
  granuloma formation: significantly inhibit granuloma formation
[2]; after injection of enzymatically active or inactive PR3 into the yolk sac
  macrophage aggregation: significantly attenuated
[2]; zebrafish injected with intact or HI PR3, niclosamide 0.01-0.3 μmol/l in fish water, vs PR3 alone
  MGC formation: significantly less MGC formation
[2]; zebrafish injected with intact or HI PR3, niclosamide in fish water
  concentration at which the reduction of MGC formation was maximal: 0.15 µmol/mL
[3]
  IL-6 levels: reduce IL-6 levels

## Tocilizumab: humanised IgG1 monoclonal antibody against the human interleukin-6 (IL-6) receptor (RoActerma, Roche, UK)
[4]
  granuloma formation: reduced granuloma formation

From patent US20260216107A1, “INTERLEUKIN-6 (IL-6)/SIGNAL TRANSDUCER AND ACTIVATOR OF TRANSCRIPTION 3 (STAT3) PATHWAY INHIBITORS FOR USE IN THE TREATMENT OF GRANULOMATOUS DISEASES” (UCL BUSINESS LTD, priority 2023, published 2026)
